From patent US11639332B2, “Methods and compositions of isoindoline-1,3-dione and isoindole prodrugs useful for treating cancer, ulcerative colitis and related inflammatory diseases” (AMGEN (EUROPE) GMBH, priority 2018, dated 2023)
Several values for one entry are separate records, joined by “and”; a condition that tells them apart may be missing. Identical values can stand only once.

Tested on: Trinitrobenzenesulfonic Acid (TNBS) Rat Model of Colonic Inflammation
Assay: Trinitrobenzenesulfonic acid (TNBS) rat model of colonic inflammation, oral treatment Days 1-6, evaluation Day 7
Format: in vivo, Sprague-Dawley rats
Parameters: key to Average Colonic Score: sum of adhesions, strictures, ulcers and wall thickness scores
Method: In Vivo Efficacy of PDE4 Inhibitor Prodrug in the Trinitrobenzenesulfonic Acid (TNBS) Rat Model of Colonic Inflammation
2. 1.62 g of prodrug from Example 2 (WB301), lot 2 (MW 587.12) in a clear 20 mL glass vial (orange material) which was stored at 4-8° C.
38 Sprague-Dawley rats (Harlan Sprague-Dawley, Inc. male, PO #599229, R #3450, 200-220 g) were received, individually examined and housed in nine cages of four rats each and one cage containing two rats. No clinical signs of disease or distress were observed. The rats were placed in quarantine with daily inspections. The rats were ear notched (SOP 800) for identification purposes, weighed (RESULTS), and sorted into four treatment groups of eight rats each based upon average body weight. The rats were individually examined and found to be free of any clinical signs of disease or distress. No deaths were recorded during the quarantine period. The rats were released to routine maintenance.
A 16 mg/ml TNBS solution was prepared be adding 2.729 ml picrylsulfonic acid solution (1 M, FLU KA, Cat. 92822, lot CDBB6609V) to 22.271 ml de-ionized water (dH20) and 25 ml 100% ethanol (200 proof, Sigma, Cat. E7023, lot SHBH3633V).
The rats were weighed (RESULTS), anesthetized (SOP1810) and Groups 1-4 were intra-rectally instilled with 4 ml/kg TNBS solution (64 mg/kg), the anus was pinched closed and the rat held inverted for one minute.
400 mg (-)riboflavin was dissolved in 40 ml DMSO (Sigma, Cat. D5879, lot 16K0127) by sonication in a 40° C. water bath for 20 minutes in an amber glass bottle, followed by storage at room temperature overnight to prepare a 10 mg/ml yellow solution.
135 mg NaOH (Fisher Scientific, Cat. S320, lot 066620) was dissolved in 100 ml dH2O to prepare a 1.35 mg/ml solution. 128.46 mg prednisolone 21-hemisuccinate sodium salt (Sigma, Cat. P4153, lot BCBB6136V, salt factor 1.339) was dissolved in 9.59 ml (-)riboflavin/DMSO followed by addition of 9.59 ml PEG400 (Sigma, Cat. 91893, lot BCBB7720). 28.781 aqueous NaOH was added with sonication to prepare a 2 mg/ml solution for Group 4. 44 mg WB301 was vortexed in 2.19 ml (-)riboflavin/DMSO to yield an orange solution followed by addition of 2.19 ml PEG400. 6.621 ml aqueous NaOH was added with sonication to prepare a 4 mg/ml solution for Group 1. 132 mg WB301 was vortexed in 2.19 ml (-)riboflavin/DMSO to yield an orange solution followed by addition of 2.19 ml PEG400. 6.621 ml aqueous NaOH was added with sonication to prepare a 12 mg/ml solution for Group 2. 6.6 mg apremilast was vortexed in 2.2 ml (-)riboflavin/DMSO to yield an orange solution followed by addition of 6.6 ml PEG400. 2.2 ml dH2O was added to prepare a 0.6 mg/ml solution for Group 3.
The rats were weighed (RESULTS) and daily oral (PO, SOP 1651) dosing at 5 ml/kg was initiated as in TABLE 1.
The rats were weighed (RESULTS) and the animals were dosed as described above daily. WB301 and apremilast solutions were prepared fresh daily as described above.
The rats were weighed (RESULTS) anesthetized, a midline incision was made in the abdomen and the colon was evaluated for adhesions and stricture (RESULTS). The colon was removed and the length recorded (RESULTS). A midline incision was made the entire length of the colon, the contents removed and the colon weight and colon wall thickness recorded (RESULTS). A section of the colon was preserved in 20 volumes of 10% neutral buffered formalin (Richard-Allan Scientific, Cat. 5701, lot 378532, exp07/2020). The carcasses were disposed of.
3) involving several bowel loops=2
4) severe, proximal dilatation=3
2) linear ulceration <1 cm=1
3) two linear ulcers <1 cm=2
4) more sites of ulceration or one large ulcer=3

[1] = group mean, Group 3, 3 mg/kg PO daily, Day 7
[2] = group mean, Group 3, 3 mg/kg PO daily, Day 7, score 0-2
[3] = group mean, Group 3, 3 mg/kg PO daily, Day 7, score 0-3
[4] = individual rats, Group 3, 3 mg/kg PO daily, Day 7

## CCOc1cc([C@@H](CS(C)(=O)=O)N2C(=O)c3cccc(NC(C)=O)c3C2=O)ccc1OC [Apremilast, apremilast, reference compound]
Group 3, 3 mg/kg daily oral
  macroscopic disease scores: improvement of the macroscopic disease scores
  study day on which rats began to recover from TNBS-induced weight loss: 6 days
Group 3, 3 mg/kg daily oral, assuming a colonic score of 10 for vehicle-treated rats
  reduction in overall colonic score: 25%
Group 3, 3 mg/kg daily oral, through DAY 5
  body weight loss: 11%
[1]
  Average # Ulcers: 1
  Average Colon Length: 13.1 cm
  Average Colon Weight: 4.793 g
  Average Colonic Score: 7.6
  Average Ratio (colon length/colon weight): 3.470 cm/g
  Average Ulcer Length: 6.3 cm
  Average Wall Thickness: 3.0 mm
[2]
  Average Adhesions: 1.3
  Average Colon Wall Thickness, score: 1.5
[3]
  Average Strictures: 1.9
  Average Ulcers, score: 3.0
Group mean, Group 3, 3 mg/kg PO daily, study day 0, day of TNBS, before dosing
  Average Rat Weight: 214 g
Group mean, Group 3, 3 mg/kg PO daily, study day 1, before first dose
  Average Rat Weight: 207 g
Group mean, Group 3, 3 mg/kg PO daily, study day 2
  Average Rat Weight: 198 g
Group mean, Group 3, 3 mg/kg PO daily, study day 3
  Average Rat Weight: 195 g
Group mean, Group 3, 3 mg/kg PO daily, study day 4
  Average Rat Weight: 190 g
Group mean, Group 3, 3 mg/kg PO daily, study day 5
  Average Rat Weight: 190 g
Group mean, Group 3, 3 mg/kg PO daily, study day 6
  Average Rat Weight: 194 g
Group mean, Group 3, 3 mg/kg PO daily, study day 7
  Average Rat Weight: 201 g
Group mean, Group 3, 3 mg/kg PO daily, study day −3, before TNBS and dosing
  Average Rat Weight: 215 g
[4]
  # Ulcers: 1
  Colon Length: 10.0 cm and 15.5 cm and 12.0 cm (2×) and 11.5 cm and 13.0 cm and 15.0 cm and 16.0 cm
  Colon Weight: 3.608 g and 7.577 g and 2.860 g and 3.000 g and 4.462 g and 9.199 g and 6.085 g and 1.550 g
  Ratio (colon length/colon weight): 2.772 cm/g and 2.046 cm/g and 4.196 cm/g and 3.833 cm/g and 2.913 cm/g and 1.631 cm/g and 2.629 cm/g and 7.742 cm/g
  Ulcer Length: 6.5 cm (2×) and 5.5 cm and 6.0 cm and 6.4 cm and 8.0 cm and 7.5 cm and 4.0 cm
  Wall Thickness: 2.5 mm (3×) and 3.5 mm (2×) and 3.7 mm and 4.0 mm and 1.5 mm
Individual rats, Group 3, 3 mg/kg PO daily, Day 7, less than 1 mm=0, 1-3 mm=1, >3 mm=2
  Colon Wall Thickness, score: 1 (4×) and 2 (4×)
Individual rats, Group 3, 3 mg/kg PO daily, Day 7, none=0, linear ulceration <1 cm=1, two linear ulcers <1 cm=2, more sites or one large ulcer=3
  Ulcers, score: 3
Individual rats, Group 3, 3 mg/kg PO daily, Day 7, score none=0, mild=1, moderate=2, severe, proximal dilatation=3
  Strictures: 1 (3×) and 3 (4×) and 0
Individual rats, Group 3, 3 mg/kg PO daily, Day 7, score none=0, minimal=1, involving several bowel loops=2
  Adhesions: 1 (4×) and 2 (3×) and 0
Individual rats, Group 3, 3 mg/kg PO daily, Day 7, sum of adhesions, strictures, ulcers and wall thickness scores
  Colonic Score: 6 and 10 (2×) and 7 (2×) and 8 and 9 and 4
Individual rats, Group 3, 3 mg/kg PO daily, study day 0, day of TNBS, before dosing
  Rat Weight: 218 g and 213 g and 206 g and 220 g and 205 g and 217 g (2×) and 214 g
Individual rats, Group 3, 3 mg/kg PO daily, study day 1, before first dose
  Rat Weight: 210 g and 213 g and 198 g and 214 g (2×) and 197 g and 204 g and 206 g
Individual rats, Group 3, 3 mg/kg PO daily, study day 2
  Rat Weight: 198 g and 203 g (2×) and 183 g and 187 g and 205 g and 193 g and 214 g
Individual rats, Group 3, 3 mg/kg PO daily, study day 3
  Rat Weight: 190 g and 200 g and 180 g (2×) and 198 g (2×) and 187 g and 225 g
Individual rats, Group 3, 3 mg/kg PO daily, study day 4
  Rat Weight: 187 g (2×) and 200 g and 170 g and 188 g and 173 g and 183 g and 234 g
Individual rats, Group 3, 3 mg/kg PO daily, study day 5
  Rat Weight: 189 g and 200 g and 167 g and 182 g (2×) and 172 g and 185 g and 244 g
Individual rats, Group 3, 3 mg/kg PO daily, study day 6
  Rat Weight: 212 g and 202 g and 163 g and 176 g and 172 g and 186 g and 188 g and 250 g
Individual rats, Group 3, 3 mg/kg PO daily, study day 7
  Rat Weight: 236 g and 210 g and 178 g (2×) and 177 g and 179 g and 194 g and 256 g
Individual rats, Group 3, 3 mg/kg PO daily, study day −3, before TNBS and dosing
  Rat Weight: 218 g and 212 g and 210 g and 219 g and 209 g and 220 g and 217 g and 213 g

## Nc1ccc(O)c(C(=O)O)c1 [Example 5-ASA, 5-aminosalacyclic acid, reference compound]
Rat TNBS model, stated without data
  activity in the TNBS model: inactive
